# Entries after “also recorded” stand apart in the source; their conditions may differ.
# Legend:
# [1] = tested on: MC3T3-E1 cells; assay: maturation of preosteoblastic cells determined by alkaline phosphatase activity; type: cell-based; conditions: for effect on maturation of MC3T3-E1 cells (alkaline phosphatase activity), solvent comparison: increasing amounts of solvent, triacetin 0,1 to 6 mM (FIG. 3)
# Protocol: (§1) MC3T3-E1 cells were grown in an alpha-modified Minimum Essential Medium (Life Technologies, Inc., Grand Island, N.Y.) containing 10% fetal calf serum (Life Technologies, Inc.), 50 μg/ml gentamycin, and 50 μg/ml ascorbic acid. C3H10T1/2 cells were grown in basal medium Eagle, and 50 μg/ml gentamycin. To examine the action of triacetin on both cell lines, 1×10^5 cells per well were plated in 6-well plates and triacetin subsequently added. Medium exchange was performed after 3 days and alkaline phosphatase (ALP) was determined according to Lowry, O. et al. [J. Biol. Chem. 207 (1954) 19-37]: p-nitrophenol liberated was converted to p-nitrophenylate by adding 400 μl of 1 M NaOH, which was quantitated by measuring the absorbance at 410 nm (epsilon=17500/mol×cm). Alkaline phosphatase activity was normalized to total protein and expressed as nmol nitrophenylate generated per min per mg protein.
# (§2) First, to verify the osteoinductive activity of triacetin an embryonic, murine, mesenchymal stem cell line C3H10T1/2 and a preosteoblastic cell line MC3T3-E1 were used and cultured as described above. C3H10T1/2 cells can differentiate into cartilage, bone or adipose cells, whereas MC3T3-E1 produces and releases autologous BMP. Alkaline phosphatase activity was used as a marker for the differentiation into the osteoblastic lineage.
# Additionally, the effect of various plasticizers/solvents regarding their osteogenetic effect was compared to that of triacetin. MC3T3-E1 cells were grown as described above and treated with increasing amounts of different solvents and the effect on the maturation of MC3T3-E1 cells determined after 6 days by alkaline phosphatase activity.
# To determine the effect of external BMP, C3H10T1/2 cells and MC3T3-E1 cells were plated at day one in 4 ml medium and ALP determination performed on day 6. On day 1 rhBMP was added to the cells from a stock solution of 2 mg/ml rhBMP-2 in 1 mM HCl to a concentration of 1 μg/ml. triacetin to a final concentration of 2 and 4 mM was added to the cells at the same time point from a stock solution of 200 mM triacetin in respective medium. After application triacetin and rhBMP was mixed by gently swirling the entire 6 well plate. In a separate experiment, the cells were treated with triacetin only.
# In a similar manner, the effect of external rhBMP-4 on the maturation of MC3T3-E1 cells was determined by alkaline phosphatase activity. MC3T3-E1 cells were treated with triacetin in the presence or absence of 60 ng rhBMP-4/ml of the medium.
# MC3T3-E1 cells were treated with triacetin in the presence or absence of 60 ng rhBMP-7/ml of the medium.
# [2] = tested on: MC3T3-E1 cells; assay: mineralization visualized by Alizarin red-S staining; type: cell-based; conditions: MC3T3-E1, 4 weeks, 5 mM glycerol phosphate, 2.0 and 4.0 mM triacetin
# Protocol: FIG. 2A: MC3T3-E1 cells treated with increasing amounts of triacetin and the maturation determined after 6 days by alkaline phosphatase activity. FIG. 2B: Mineralization by MC3T3-E1 cells seeded on a 6-well plate visualized by Alizarin S-staining. The MC3T3-E1 cells were cultured for 4 weeks in the presence of 5 mM glycerol phosphate. From the left: no triacetin was added, 2.0 mM triacetin was added, 4.0 mM triacetin.
# Mineralization was determined in MC3T3-E1 cells grown in the same medium supplemented with 5 mM glycerol phosphate and 1 μg/ml rhBMP-2 or 60 ng/ml of rhBMP-4 of rhBMP-7. Alizarin red-S staining was performed after 4 weeks according to Bodine, P. V. N., et al. [J. Bone Mineral Res. 11 (1996) 806-819].
# [3] = tested on: C3H10T1/2 cells; assay: differentiation of mesenchymal stem cells towards osteoblastic lineage determined by alkaline phosphatase activity; type: cell-based, murine
# Protocol: as §1
# as §2, with “Alkaline phosphatase activity was used as a marker for the differentiation into the osteoblastic lineage.” left out
# The differentiation of the mesenchymal cell like cell line (C3H10T1/2) towards an osteoblastic lineage was determined by alkaline phosphatase activity. […]
structure (smiles),measurement,setting,value
"CN(C)C=O [N,N-dimethylformamide, reference compound]","effect on maturation of MC3T3-E1 cells (alkaline phosphatase activity), solvent comparison",[1]; after 6 days,no positive effect
"C[S+](C)[O-] [dimethylsulfoxide, reference compound]","effect on maturation of MC3T3-E1 cells (alkaline phosphatase activity), solvent comparison",[1]; after 6 days,no positive effect
"CCO [ethanol, reference compound]","effect on maturation of MC3T3-E1 cells (alkaline phosphatase activity), solvent comparison",[1]; after 6 days,no positive effect
"CO [methanol, reference compound]","effect on maturation of MC3T3-E1 cells (alkaline phosphatase activity), solvent comparison",[1]; after 6 days,no positive effect
"CC(=O)OCC(COC(C)=O)OC(C)=O [triacetin, glyceryl triacetate]",increase of alkaline phosphatase activity,"[1]; MC3T3-E1, 0,0 to 4 mM triacetin, after 6 days",2.0-7.0 factor
same,synergistic effect with rhBMP4 on maturation (alkaline phosphatase activity),"[1]; MC3T3-E1, triacetin with 60 ng rhBMP4/ml (FIG. 5)",synergistic effect
same,synergistic effect with rhBMP-7 on maturation (alkaline phosphatase activity),"[1]; MC3T3-E1, triacetin with 60 ng rhBMP-7/ml (FIG. 6)",synergistic bone forming effect
same,synergistic effect with rhBMP-2 on maturation (alkaline phosphatase activity),"[1]; MC3T3-E1, triacetin with 1 μg rhBMP-2/ml (FIG. 4)",synergistic effect
same,"effect on maturation of MC3T3-E1 cells (alkaline phosphatase activity), solvent comparison",[1]; after 6 days,increases in a concentration dependent manner
same,mineralisation by alizarin-S-staining,[2],increased mineralisation
same,"alkaline phosphatase activity, triacetin alone","[3]; C3H10T1/2, 2 mM and 4 mM, absence of rhBMP",increase in alkaline phosphatase activity; also recorded: able to induce alkaline phosphatase activity
same,synergistic effect with rhBMP-2 on alkaline phosphatase activity,"[3]; C3H10T1/2, triacetin 2 and 4 mM with 1 μg rhBMP-2/ml, day 6",further enhanced; also recorded: works synergistically

# From patent US20060258578A1, “Pharmaceutical composition” (The University of Zurich, priority 2005, published 2006)
